{"source": "patent US4309559A", "about": "“Sulphonamides useful as pesticides” (FBC Limited, priority 1977, dated 1982)", "type_in_all_cases": "in vivo", "key": {"Mustard (Sinapis alba)": {"tested_on": "Mustard (Sinapis alba)", "test": "Post-emergence foliar spray, herbicidal/growth regulant response, mustard", "details": "168 h, foliar spray 11.2 kg/ha, 7 days, 0=no effect, 100=complete kill, read-out: herbicidal or growth regulant response index", "method_in_brief": "(§1)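 Score is a visual index from 0 (no effect) to 100 (complete kill) versus untreated control, assessed seven days after spraying. Plants were treated 14 days post-sowing at a rate equivalent to 11.2 kg/ha in 450 liters per hectare, compound dissolved in 1:1 aqueous acetone.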"}, "[1]": {"tested_on": "Linseed (Linum usitatissimum)", "test": "Post-emergence foliar spray, herbicidal/growth regulant response, linseed", "details": "168 h, foliar spray 11.2 kg/ha, 7 days, 0=no effect, 100=complete kill, read-out: herbicidal or growth regulant response index", "method_in_brief": "as §1"}, "[2]": {"tested_on": "Ryegrass (Lolium perenne)", "test": "Post-emergence foliar spray, herbicidal/growth regulant response, ryegrass", "details": "168 h, foliar spray 11.2 kg/ha, 7 days, 0=no effect, 100=complete kill, read-out: herbicidal or growth regulant response index", "method_in_brief": "as §1"}, "[3]": {"tested_on": "French beans (Phaseolus vulgaris)", "test": "Post-emergence foliar spray, herbicidal/growth regulant response, French beans", "details": "foliar spray 11.2 kg/ha, 7 days, 0=no effect, 100=complete kill", "method_in_brief": "as §1"}, "[4]": {"tested_on": "Linseed (Linum usitatissimum)", "test": "Soil incorporation (attaclay/sand dust), growth regulatory or herbicidal effects, linseed", "details": "504 h, soil incorporation 26 ppm, 21 days, 0=no effect, 100=complete kill, read-out: growth regulatory or herbicidal effect score", "method_in_brief": "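Active ingredient formulated as attaclay/sand dust and mixed into John Innes I potting compost at 26 or 130 ppm w/v (about 11.2 or 56 kg a.i./ha cultivated to 5 cm). Seeds sown in treated soil, grown 21 days at 22° C, 65-85% RH, 14 h light at 13,000 lux; visual score 0-100 versus untreated control.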"}, "Barley (Hordeum vulgare)": {"tested_on": "Barley (Hordeum vulgare)", "test": "Pre-emergence soil surface spray, barley", "details": "soil surface spray 2.8 kg/ha, 21 days, 0=no effect, 100=complete kill", "method_in_brief": "(§2)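 Visual score 0-100 (0 = no effect, 100 = complete kill) relative to untreated control, taken 21 days after a pre-emergence soil-surface spray at 2.8 kg a.i./ha in 450 l/ha. Compound formulated in 1:1 aqueous acetone; growth at 22° C., RH 65-85%, 14 h/day light at 17,000 lux.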"}, "[5]": {"tested_on": "Barnyardgrass (Echinochloa crus-galli)", "test": "Pre-emergence soil surface spray, barnyardgrass", "details": "soil surface spray 2.8 kg/ha, 21 days, 0=no effect, 100=complete kill", "method_in_brief": "as §2"}, "[6]": {"tested_on": "Crabgrass (Digitaria sanguinalis)", "test": "Pre-emergence soil surface spray, crabgrass", "details": "soil surface spray 2.8 kg/ha, 21 days, 0=no effect, 100=complete kill", "method_in_brief": "as §2"}}, "data": [{"compound": "CCCS(=O)(=O)N(c1c(C)cccc1C)C(C)C(=O)OCC", "note": "(centres unmarked) [Example 24, N-(1-[ethoxycarbonyl]ethyl)-2',6'-dimethyl-1-propanesulphonanilide]", "values": [{"measurement": "pest or weed control at 11200 g/ha", "setting": "Mustard (Sinapis alba)", "result": 100, "unit": "%"}, {"measurement": "pest or weed control at 11200 g/ha", "setting": "[1]", "result": 90, "unit": "%"}, {"measurement": "pest or weed control at 11200 g/ha", "setting": "[2]", "result": 75, "unit": "%"}, {"measurement": "herbicidal or growth regulant response index", "setting": "[3]", "result": 100}, {"measurement": "pest or weed control at 26 µg/mL", "setting": "[4]", "result": 100, "unit": "%"}, {"measurement": "growth regulatory or herbicidal effect score", "setting": "Barley (Hordeum vulgare)", "result": 30}, {"measurement": "growth regulatory or herbicidal effect score", "setting": "[5]", "result": 80}, {"measurement": "growth regulatory or herbicidal effect score", "setting": "[6]", "result": 100}]}]}
